Measurements: patent US20150231276A1, “ROLE OF DH44 AND HOMOLOGS IN CALORIE SENSING” (New York University, priority 2014, published 2015)
Entries after “also recorded” stand apart in the source; their conditions may differ. Where two headings read alike, the source gives them in different places.

Legend:
Dh44+ cells [1] = assay: Ca2+ imaging (GCaMP3.0) of Dh44+ cell activity in response to sugars, ex vivo fly brains; assay type: cell-based, Drosophila melanogaster; details: for activation of Dh44+ cells: perfusion of sugar, brains of PDh44 GAL4>UAS-GCaMP3.0 flies, D-glucose 5, 20, 80 mM; for peak amplitude, oscillation number and frequency of Dh44+ cells activation: non-metabolized sugar treatment
Dh44+ cells [2] = assay: Ex vivo destaining experiment: Dh44 peptide release quantified by αDh44 immunofluorescence; assay type: cell-based, Drosophila melanogaster; details: for release of the Dh44 peptide (amount of Dh44 peptide left inside Dh44+ cells): brains of 18 h-food deprived flies incubated in AHL + sugar 80 mM for 30′, compared with saline (AHL)
[3] = test system: CRH neurons in paraventricular nucleus (PVN); assay: Whole-cell patch-clamp recordings of glucose sensing response in brain slices; assay type: cell-based, mice; set-up: Input R: unit not given here
Method: Whole-cell patch-clamp recordings from CRH neurons in paraventricular nucleus (PVN) slice preparation and data analysis were performed as previously described (ref).
Briefly, 3 to 5 week old of either male or female mice were anesthetized with isoflurane and transcardially perfused with a modified ice-cold artificial CSF (ACSF) in which NaCl was substituted with an equal molar concentration of sucrose (described below). Then, the mice was decapitated, and the entire brain was removed and then immediately immersed in ice-cold ACSF (220 mM sucrose, 2.5 mM KCl, 5.0 mM MgCl2, 1.0 mM CaCl2, 1.0 mM NaH2PO4, 26 mM NaHCO3, and 10 mM glucose), saturated with 95% O2 and 5% CO2. A brain block containing PVN was mounted on a stage and coronal sections (250 um) were cut with a Leica Vibratome. The sectioned slices were then incubated in oxygenated ACSF at 34° C. for at least 1 hour before recording. The slices were transferred into recording chamber and bathed in oxygenated ACSF. The solution flowing the recording chamber was consists of: (126 mM NaCl, 26 mM NaHCO3, 2.8 mM KCl, 2.5 mM CaCl2, 1.25 mM NaH2PO4, 1.2 mM MgSO4, and 5 mM or 2.5 mM glucose). The pipette solution for whole-cell recording was modified to include an intracellular dye (Alexa Fluor 488): 120 mM K-gluconate, 10 mM KCl, 10 mM HEPES, 5 mM EGTA, 1 mM CaCl2, 1 mM MgCl2, and 2 mM MgATP, 0.03 mM Alexa Fluor 488 dye, pH 7.3. Electrophysiological signals were recorded using an […] amplifier (Molecular Devices), low-pass filtered at 2-5 kHz, and analyzed offline on a PC with pCLAMP programs (Molecular Devices). Recording electrodes had resistances of 4.0-6.0 MΩ when filled with K-gluconate pipette solution.
As the cells to be targeted illuminate red fluorescence from td-tomato, the pipette with positive pressure was attached to cell membrane, which was subsequently giga-sealed by brief negative pressure, before making a tiny hole with more negative pressure to perform whole-cell recordings. Only cells with a whole-cell resistance below 15 MΩ and with a stable resting membrane potential within 1 min were selected and carried out recording. […] At the end of a stable trace, its input resistance was assessed by measuring the voltage deflection to hyperpolarizing rectangular current pulse steps (500 ms of −10 to −50 pA). […] Depending on the cells, it took 1-5 min to change the membrane potential and firing rate. After stabilizing the change in electrophysiological response, input resistance was assessed in the same way as previously described. […] (For most CRH neurons as GE neurons, it took more than 10 min to recover after the response.)

[4] = Table 2, glucose back to 2.5 mM

O=C1NC(=O)C(=O)C(=O)N1 [Alloxan]
oscillations of Dh44+ cells (Dh44+ cells [1]; D-glucose + Alloxan perfusion): almost complete disappearance | peak amplitude of activation of Dh44+ cells (Dh44+ cells [1]; D-glucose + Alloxan perfusion): dramatic decrease | effect on D-glucose-mediated activity (Ca++ influx) of Dh44+ cells (Dh44+ cells [1]; agent added to the D-glucose solution, Alloxan 4 μM): greatly suppressed | effect on D-glucose-induced Dh44 neuropeptide release (Dh44+ cells [2]; agent together with D-glucose, ex vivo): did not result in the release; also recorded: reduction

OC[C@H]1O[C@H](O[C@H]2O[C@H](CO)[C@@H](O)[C@H](O)[C@H]2O)[C@H](O)[C@@H](O)[C@@H]1O [trehalose]
activation of Dh44+ cells (Dh44+ cells [1]): robust and persistent activation; also recorded: robustly activated

O=C[C@H](O)[C@@H](O)[C@H](O)[C@H](O)CO [D-glucose]
activation of Dh44+ cells (Dh44+ cells [1]): robust and persistent activation; also recorded: robustly activated | f ([3]; Table 1 (FIGS. 10A-10B), glucose 5 mM, first): 0.64 HZ | Input R ([3]; Table 1, glucose 2.5 mM): 1.25 | RMP ([3]; Table 1, glucose 2.5 mM): −65.8874 mV | f ([3]; Table 1, glucose 2.5 mM): 0.02 HZ | Input R ([3]; Table 1, glucose 5 mM): 1.40 | Rev P ([3]; Table 1, glucose 5 mM to 2.5 mM): −222.95 mV | RMP ([3]; Table 1, glucose 5 mM, first): −49.5691 mV | RMP ([3]; Table 1, glucose back to 5 mM): −57.9124 mV | f ([3]; Table 1, glucose back to 5 mM): 0.65 HZ | Rev P ([3]; Table 2): −169 mV | f ([3]; Table 2 (FIGS. 11A-11B), glucose 2.5 mM, first): 0.64 HZ | Input R ([3]; Table 2, column headed glucose 2.5 mM): 2.66 | Input R ([3]; Table 2, column headed glucose 5 mM): 2.82 | RMP ([3]; Table 2, glucose 2.5 mM, first): −60.5911 mV | RMP ([3]; Table 2, glucose 5 mM): −52.4561 mV | f ([3]; Table 2, glucose 5 mM): 0.02 HZ | RMP [3, 4]: −59.3806 mV | f [3, 4]: 0.65 HZ | time to change the membrane potential and firing rate ([3]; after recording solution changed from 5 mM to 2.5 mM glucose): 1 to 5 min | electrical activity of the CRH neurons ([3]; glucose changed from 2.5 mM to 5 mM): increased | electrical activity of the CRH neurons ([3]; glucose changed from 5 mM to 2.5 mM): decreased | time to recover after the response ([3]; recording solution changed back to 5 mM glucose, most CRH neurons): more than 10 min

O=CC[C@@H](O)[C@H](O)[C@H](O)CO [2DG, 2-deoxy-D-glucose]
peak amplitude, oscillation number and frequency of Dh44+ cells activation (Dh44+ cells [1]): greatly reduced or nearly abolished | activation of Dh44+ cells (Dh44+ cells [1]): small increase in activity that lacked oscillations | release of the Dh44 peptide (amount of Dh44 peptide left inside Dh44+ cells) (Dh44+ cells [2]): did not result in the release | release of the Dh44 peptide (amount of Dh44 peptide left inside Dh44+ cells) (Dh44+ cells [2]; listed as D-2′-deoxy-glucose): did not induce

NC1=N[C@H](O)[C@H]2[C@H]3O[C@]4(O)O[C@@H]([C@@H](O)[C@@]2(N1)[C@@H]4O)[C@]3(O)CO [TTX, Tetrodotoxin]
effect on D-glucose-mediated activity (Ca++ influx) of Dh44+ cells (Dh44+ cells [1]): small but non-significant effect; also recorded: small but nonsignificant effect | effect on D-glucose-induced Dh44 neuropeptide release (Dh44+ cells [2]): did not affect

O=C(CO)[C@@H](O)[C@H](O)[C@H](O)CO [D-fructose]
activation of Dh44+ cells (Dh44+ cells [1]): robustly activated | activation of Dh44+ cells (Dh44+ cells [1]; listed as fructose): robust and persistent activation

O=C[C@@H](O)[C@H](O)[C@@H](O)[C@@H](O)CO [L-glucose]
peak amplitude, oscillation number and frequency of Dh44+ cells activation (Dh44+ cells [1]): greatly reduced or nearly abolished | activation of Dh44+ cells (Dh44+ cells [1]): small increase in activity that lacked oscillations | release of the Dh44 peptide (amount of Dh44 peptide left inside Dh44+ cells) (Dh44+ cells [2]): did not result in the release; also recorded: did not induce
